Literature values, collected in US11433115B2, “Glycopeptide antibiotics liquid formulations and methods and uses thereof” (SOMERSET THERAPEUTICS, LLC, priority 2020, dated 2022).
Where two headings read alike, the source gives them in different places.

What was measured:
rats = conditions: rat, in vivo
[1] = orally-dosed pigs, ˜382 mg/kg
acylases = conditions: via the action of acylases

In the case of `CSCCC(NC(C)=O)C(=O)O` (racemic) [N-acetyl-DL-methionine], the LD50 (rats; ip) is listed as 6700 mg/kg.

For `CSCC[C@@H](NC(C)=O)C(=O)O` [NADM, N-acetyl-D-methionine], the “hydrolysis to D- and L-methionine” value [1] is given as “only minimally hydrolyzed” and the “time to peak plasma concentration after dosing” value [1] is given as 15 min.

In the case of `CC(=O)N[C@H](C)C(=O)O` [NADA, N-acetyl D-alanine], the embryo-fetal toxicity (animal reproduction studies) is given as “caused fetal malformations”.

For polyethylene glycol [PEG 400], the embryo-fetal toxicity (in vivo) is given as “caused fetal malformations”.

For `CSCC[C@H](NC(C)=O)C(=O)O` [NALM, N-acetyl-L-methionine], the “hydrolysis to L-methionine and acetic acid” value (acylases) is listed as “completely hydrolyzed” and the LD50 (rats; iv) is listed as 435 mg/kg.
